Among the data in ChEMBL document CHEMBL1142619, “Three new flavonol galloylglycosides from leaves of Acacia confusa” (J Nat Prod, 2000) are IC50 values, retold here.

≈ marks a conversion by molar mass, not a printed value.

In general, IC50 refers to the concentration that inhibits the measured activity by half.

The test system of this experiment is Artemia salina. Put plainly: Toxicity in Artemia salina assessed as inhibition of egg hatching after 48 hrs. The class given is organism-based.
Consider `C[C@H]1O[C@H](Oc2c(-c3cc(O)c(O)c(O)c3)oc3cc(O)cc(O)c3c2=O)[C@@H](OC(=O)c2cc(O)c(O)c(O)c2)[C@@H](O)[C@@H]1O`, for which the IC50 was 75 mg/L (≈ 122 µM).
Under `C[C@H]1O[C@H](Oc2c(-c3cc(O)c(O)c(O)c3)oc3cc(O)cc(O)c3c2=O)[C@@H](O)[C@@H](OC(=O)c2cc(O)c(O)c(O)c2)[C@@H]1O` stands 64 mg/L (≈ 104 µM); under `COc1cc(O)c2c(=O)c(O[C@H]3O[C@H](C)[C@@H](O)[C@H](O)[C@@H]3OC(=O)c3cc(O)c(O)c(O)c3)c(-c3cc(O)c(O)c(O)c3)oc2c1`, 89 mg/L (≈ 141 µM); under `COc1cc(O)c2c(=O)c(O[C@H]3O[C@H](C)[C@@H](O)[C@H](OC(=O)c4cc(O)c(O)c(O)c4)[C@@H]3O)c(-c3cc(O)c(O)c(O)c3)oc2c1`, 50 mg/L (≈ 79.3 µM).
